This passage reports cell survival and CC50 results from patent US9687467B2, “Diagnosis and treatment of taxane-resistant cancers” (Children's Medical Center Corporation, priority 2011, dated 2017).

Experiment [1] relates to MES-SA cells. As to the kind of experiment: MTT cell viability assay, paclitaxel response. Format: cell-based, human. The settings on record: 100 nM paclitaxel for 72 h. The protocol: (§1) The paclitaxel-resistant cell lines MES-SA^DX5 and A549^TR were transfected with a scrambled non-targeting miRNA (control) and an miR-135a mimic (mimic), respectively. Cells were subsequently treated with 100 nM paclitaxel and cell viability was assessed using the MTT assay (FIGS. 2A, 2B). The percentage of apoptotic cells was assessed by Annexin V-staining and FACS analysis (FIGS. 2C, 2D). Values are presented as percent cell survival in paclitaxel-treated cells relative to untreated cells. *P<0.05, **P<0.001 as determined by Wilcoxon's rank sum test.
FIGS. 4A-4E are a series of micrographs and line graphs showing that miR-135a-mediated APC suppression contributes to paclitaxel resistance. MES-SA and A549 cells were mock-transfected (mock), transfected with a scrambled siRNA (siControl) or with siRNA directed against APC (siAPC). […] Transfected A549 (FIG. 4B) and MES-SA (FIG. 4C) cells were treated with paclitaxel and viability was assessed using the MTT assay. […] (FIG. 4E) Both A549-shCON and -shAPC cells were treated with paclitaxel and cell viability was measured using the MTT assay. […]
Cell growth inhibition was determined by a 3-(4,5-dimethylthiazol-2-yl)-2,5-diphenyltetrazolium (MTT) bromide assay. […] Absorbance was determined using a 96-well SpectraMax plate reader (Molecular Devices, Sunnyvale, Calif.) at 560 nm and 650 nm (background). […]
(In general: Tetrazolium assays rely on reduction of a dye to a coloured formazan, in cell work by metabolically active cells.)

For experiment [2], the system named is A549 cells. As to the kind of experiment: cells. In kind it is cell-based. The settings on record: Homo sapiens, A549, read-out: median LC50. On the procedure:
as §1
FIGS. 4A-4E are a series of micrographs and line graphs showing that miR-135a-mediated APC suppression contributes to paclitaxel resistance. […] Transfected A549 (FIG. 4B) and MES-SA (FIG. 4C) cells were treated with paclitaxel and viability was assessed using the MTT assay. […] (FIG. 4E) Both A549-shCON and -shAPC cells were treated with paclitaxel and cell viability was measured using the MTT assay. […]
(FIG. 7A). The parental A549 cells, a cell line that became refractory during in vivo treatment with paclitaxel (T20.2 round 1) and the same cell line established after yet another round of in vivo paclitaxel treatment (T20.2 reinjection) were treated with paclitaxel and cell viability was assessed using the MTT assay. […] (FIG. 7B) The expression of miR-135a was examined in these cells by qRT-PCR. *P<0.05 as determined by Wilcoxon's rank sum test. […]

As to `CC(=O)O[C@H]1C(=O)[C@@]2(C)[C@H]([C@H](OC(=O)c3ccccc3)[C@]3(O)C[C@H](OC(=O)[C@H](O)[C@@H](NC(=O)c4ccccc4)c4ccccc4)C(C)=C1C3(C)C)[C@]1(OC(C)=O)CO[C@@H]1C[C@@H]2O` [paclitaxel], the cell survival in experiment [1] is recorded as 21.8%. For the same molecule, the CC50 in experiment [2] was determined as 1.14 nM.
